Results as given in US7265152B2 (ViroPharma Incorporated, priority 2002, dated 2007).
Where two headings read alike, the source gives them in different places.

Legend:
HCV NS5B = target: T1, HCV NS5B (Hepatitis C virus genotype 1b, UniProt Q9WMX2); test: Inhibition of viral RNA-dependent RNA polymerase (RdRp), in vitro biochemical assay; parameters: species or system HCV genotype 1b virus (BB7); conditions: read-out: HCV pol-BB7 IC50
T1 construct: fusion protein, of which the carboxyl terminal 21 amino acids were removed to enhance its solubility; His tag (GSHHHHHH); made in house; host or cells: E. coli
Outline: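 Purified recombinant NS5B from a genotype 1b consensus (BB7), His-tagged, E. coli-expressed, with the C-terminal 21 residues deleted. Inhibition of RdRp activity in vitro was measured, and IC50 is the concentration giving 50% inhibition.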

[1] = tested on: HCV replicon (BB7 sequence) in Huh-7-Clone A cells; test: HCV replicon assay: ELISA of NS5A protein in replicon-containing cells (Inhibition of Viral RNA Replication); assay type: cell-based; conditions: read-out: Replicon
Outline: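 Huh-7-Clone A cells carrying subgenomic BB7 HCV replicon (G418-selectable) incubated 72 h with compound. NS5A protein quantified by cell ELISA: glutaraldehyde fixation, anti-NS5A monoclonal plus HRP secondary, TMB read at OD 650 nm. EC50 derived from 8-point serial dilution dose curve.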

[2] = HCV NS5B RdRp, BB7, activity class
[3] = Hepatitis C virus, HCV replicon assay, ranges of EC50
[4] = HCV NS5B RdRp, BB7, reported as range class
[5] = Hepatitis C virus, HCV replicon, range of EC50
[6] = purified His-tagged NS5B (BB7), carboxyl terminal 21 amino acids removed
[7] = Hepatitis C virus, Huh-7-Clone A, NS5A ELISA, 72-hour incubation, ranges of EC50
[8] = HCV NS5B RdRp, BB7, class symbols A-D
[9] = Hepatitis C virus, ranges of EC50 in HCV replicon assay

## CNC(=O)c1c(-c2ccc(F)cc2)oc2cc(N(C)S(C)(=O)=O)c(OCC(C)=O)cc12 [Example 369, 2-(4-Fluoro-phenyl)-6-(methanesulfonyl-methyl-amino)-5-(2-oxo-propoxy)-benzofuran-3-carboxylic acid methylamide]
HCV NS5B; [2]
  IC50: ≤ 500 nM
[1]; [3]
  EC50: < 1000 nM

## CNC(=O)c1c(-c2ccc(F)cc2)oc2cc(N(CC(=O)O)S(C)(=O)=O)c(OC(C)C)cc12 [Example 189, {[2-(4-Fluoro-phenyl)-5-isopropoxy-3-methylcarbamoyl-benzofuran-6-yl]-methanesulfonyl-amino}-acetic acid]
HCV NS5B; [4]
  IC50: 500 to 5000 nM
[1]; [5]
  EC50: < 1000 nM

## CNC(=O)c1c(-c2ccc(F)cc2)oc2ccc(F)cc12 [Example 82, 5-Fluoro-2-(4-fluoro-phenyl)-benzofuran-3-carboxylic acid methylamide]
HCV NS5B; [6]
  IC50: 500 to 5000 nM
[1]; [7]
  EC50: < 30000 nM

## CNC(=O)c1c(-c2ccc(F)cc2)oc2cc(-c3c(C)noc3COC)c(OC)cc12 [Example 280, 2-(4-Fluoro-phenyl)-5-methoxy-6-(5-methoxymethyl-3-methyl-isoxazol-4-yl)-benzofuran-3-carboxylic acid methylamide]
HCV NS5B; [8]
  IC50: ≤ 500 nM
[1]; [3]
  EC50: < 1000 nM

## CNC(=O)c1c(-c2ccc(C#N)cc2)oc2ccc(OC(C)C)cc12 [Example 106, 2-(4-Cyano-phenyl)-5-isopropoxy-benzofuran-3-carboxylic acid methylamide]
HCV NS5B; HCV NS5B RdRp, BB7 genotype 1b
  IC50: 500 to 5000 nM
[1]; [9]
  EC50: < 30000 nM

## CNC(=O)c1c(-c2cccc(C(F)(F)F)c2)oc2ccc(OC)cc12 [Example 55, 5-Methoxy-2-(3-trifluoromethyl-phenyl)-benzofuran-3-carboxylic acid methylamide]
HCV NS5B; [6]
  IC50: 500 to 5000 nM
[1]; [7]
  EC50: < 30000 nM

## CNC(=O)c1c(-c2ccc(F)cc2)oc2cc(N(C)S(C)(=O)=O)c(OCCN3CCOCC3)cc12 [Example 52, 2-(4-Fluoro-phenyl)-6-(methanesulfonyl-methyl-amino)-5-(2-morpholin-4-yl-ethoxy)-benzofuran-3-carboxylic acid methylamide]
HCV NS5B; [6]
  IC50: ≤ 500 nM
[1]; [7]
  EC50: < 1000 nM

## CNC(=O)c1c(-c2ccc(F)cc2)oc2cc(N(C)S(C)(=O)=O)c(OCc3nn(C)cc3Cl)cc12 [Example 403, 5-(4-Chloro-1-methyl-1H-pyrazol-3-ylmethoxy)-2-(4-fluoro-phenyl)-6-(methanesulfonyl-methyl-amino)-benzofuran-3-carboxylic acid methylamide]
HCV NS5B; HCV NS5B polymerase, BB7 (genotype 1b), values given as range classes A-D
  IC50: ≤ 500 nM
[1]; Hepatitis C virus, HCV replicon assay, ranges of 50% effective concentration (EC50)
  EC50: < 1000 nM

## CNC(=O)c1c(-c2ccc(F)cc2)oc2cc(Cl)c(OC)cc12 [Example 126, 6-Chloro-2-(4-fluoro-phenyl)-5-methoxy-benzofuran-3-carboxylic acid methylamide]
HCV NS5B; HCV NS5B RdRp, BB7 genotype 1b
  IC50: ≤ 500 nM
[1]; [9]
  EC50: < 1000 nM

## CNC(=O)c1c(-c2ccc(F)cc2)oc2cc(S(=O)(=O)NC)c(OC(C)C)cc12 [Example 143, 2-(4-Fluoro-phenyl)-5-isopropoxy-6-methylsulfamoyl-benzofuran-3-carboxylic acid methylamide]
HCV NS5B; HCV NS5B RdRp, BB7 genotype 1b
  IC50: ≤ 500 nM
[1]; [9]
  EC50: > 30000 nM

## CNC(=O)c1c(-c2cccnc2)oc2ccc(Cl)cc12 [Example 89, 5-Chloro-2-pyridin-3-yl-benzofuran-3-carboxylic acid methylamide]
HCV NS5B; [6]
  IC50: 500 to 5000 nM
[1]; [7]
  EC50: > 30000 nM

## CNC(=O)c1c(-c2ccc(F)cc2)oc2cc(N(C)S(C)(=O)=O)c(OCc3cc(OC)cc(OC)c3)cc12 [Example 352, 5-(3,5-Dimethoxy-benzyloxy)-2-(4-fluoro-phenyl)-6-(methanesulfonyl-methyl-amino)-benzofuran-3-carboxylic acid methylamide]
HCV NS5B; [2]
  IC50: ≤ 500 nM
[1]; [3]
  EC50: < 1000 nM

## CNC(=O)c1c(-c2ccc(F)cc2)oc2cc(N3CCOCC3)c(OCC(C)=O)cc12 [Example 215, 2-(4-Fluoro-phenyl)-6-morpholin-4-yl-5-(2-oxo-propoxy)-benzofuran-3-carboxylic acid methylamide]
HCV NS5B; [4]
  IC50: 500 to 5000 nM
[1]; [5]
  EC50: < 10000 nM

## CNC(=O)c1c(-c2ccc(F)cc2)oc2cc(C3CCCN3)c(OC(C)C)cc12 (stereo not drawn) [Example 265, 2-(4-Fluoro-phenyl)-5-isopropoxy-6-pyrrolidin-2-yl-benzofuran-3-carboxylic acid methylamide]
HCV NS5B; [8]
  IC50: 5000 to 30000 nM
[1]; [3]
  EC50: > 30000 nM

## CNC(=O)c1c(-c2ccccc2)oc2ccc(OC)c(C)c12 [Example 25, 5-Methoxy-4-methyl-2-phenyl-benzofuran-3-carboxylic acid methylamide]
HCV NS5B; [6]
  IC50: > 30000 nM
[1]; [7]
  EC50: > 30000 nM

## CNC(=O)c1c(-c2ccc(F)cc2)oc2cc(-c3cn[nH]c3C)c(OC(C)C)cc12 [Example 257, 2-(4-Fluoro-phenyl)-5-isopropoxy-6-(5-methyl-1H-pyrazol-4-yl)-benzofuran-3-carboxylic acid methylamide]
HCV NS5B; [8]
  IC50: ≤ 500 nM
[1]; [3]
  EC50: < 1000 nM

## CNC(=O)c1c(-c2ccc(F)cc2)oc2cc(C3CNC(=O)C3)c(OC)cc12 (stereo not drawn) [Example 315, 2-(4-Fluoro-phenyl)-5-methoxy-6-(5-oxo-pyrrolidin-3-yl)-benzofuran-3-carboxylic acid methylamide]
HCV NS5B; [8]
  IC50: ≤ 500 nM
[1]; [3]
  EC50: < 10000 nM

## CNC(=O)c1c(-c2ccc(F)cc2)oc2cc(-c3noc(C)n3)c(OC)cc12 [Example 50, 2-(4-Fluoro-phenyl)-5-methoxy-6-(5-methyl-[1,2,4]oxadiazol-3-yl)-benzofuran-3-carboxylic acid methylamide]
HCV NS5B; [6]
  IC50: ≤ 500 nM
[1]; [7]
  EC50: < 1000 nM

## CCOC(=O)c1ccc(NC(=O)COc2cc3c(C(=O)NC)c(-c4ccc(F)cc4)oc3cc2N(C)S(C)(=O)=O)cc1 [Example 359, 4-{2-[2-(4-Fluoro-phenyl)-6-(methanesulfonyl-methyl-amino)-3-methylcarbamoyl-benzofuran-5-yloxy]-acetylamino}-benzoic acid ethyl ester]
HCV NS5B; [2]
  IC50: ≤ 500 nM
[1]; [3]
  EC50: < 10000 nM

## 2-(4-Fluoro-phenyl)-5-hydroxy-6-[methanesulfonyl-(2-oxo-propyl)-amino]-benzofuran-3-carboxylic acid methylamide [Example 354]
HCV NS5B; [2]
  IC50: 500 to 5000 nM
[1]; HCV replicon assay, ranges of EC50
  EC50: < 10000 nM

## CNC(=O)c1c(-c2ccc(F)cc2)oc2cc(NS(=O)(=O)CCCCl)c(OC(C)C)cc12 [Example 133, 6-(3-Chloro-propane-1-sulfonylamino)-2-(4-fluoro-phenyl)-5-isopropoxy-benzofuran-3-carboxylic acid methylamide]
HCV NS5B; HCV NS5B RdRp, BB7 genotype 1b
  IC50: 500 to 5000 nM
[1]; [9]
  EC50: < 1000 nM

## CNC(=O)c1c(-c2ccc(F)cc2)oc2cc(N(C)S(C)(=O)=O)c(C3CC3)cc12 [Example 437, 5-Cyclopropyl-2-(4-fluoro-phenyl)-6-(methanesulfonyl-methyl-amino)-benzofuran-3-carboxylic acid methylamide]
HCV NS5B; HCV NS5B RdRp, BB7 (genotype 1b), reported as class symbols
  IC50: ≤ 500 nM
[1]; [3]
  EC50: < 1000 nM

## CNC(=O)c1c(-c2ccc(F)cc2)oc2cc(N3CCC3)c(OC(C)C)cc12 [Example 109]
HCV NS5B; HCV NS5B RdRp, BB7 genotype 1b
  IC50: ≤ 500 nM
[1]; ranges of EC50 in HCV replicon assay
  EC50: < 1000 nM

## CCCOc1ccc2oc(-c3ccccc3)c(C(=O)NC)c2c1 [Example 61, 2-Phenyl-5-propoxy-benzofuran-3-carboxylic acid methylamide]
HCV NS5B; [6]
  IC50: 500 to 5000 nM
[1]; [7]
  EC50: < 30000 nM

## CNC(=O)c1c(-c2ccccc2)oc2ccc(OCC(F)(F)F)cc12 [Example 11, 2-Phenyl-5-(2,2,2-trifluoro-ethoxy)-benzofuran-3-carboxylic acid methylamide]
HCV NS5B; [6]
  IC50: > 30000 nM
[1]; [7]
  EC50: < 30000 nM

## CNC(=O)c1c(-c2ccc(F)cc2)oc2cc(N(C)S(C)(=O)=O)c(OCc3ccc4c(c3)C(=O)OC(C)(C)O4)cc12 [Example 329, 5-(2,2-Dimethyl-4-oxo-4H-benzo[1,3]dioxin-6-ylmethoxy)-2-(4-fluoro-phenyl)-6-(methanesulfonyl-methyl-amino)-benzofuran-3-carboxylic acid methylamide]
HCV NS5B; [8]
  IC50: ≤ 500 nM
[1]; [3]
  EC50: < 1000 nM

## CCc1cc2c(C(=O)NC)c(-c3ccc(F)cc3)oc2cc1C(C)=O [Example 340, 6-Acetyl-5-ethyl-2-(4-fluoro-phenyl)-benzofuran-3-carboxylic acid methylamide]
HCV NS5B; [2]
  IC50: ≤ 500 nM
[1]; [3]
  EC50: < 1000 nM

## CNC(=O)c1c(-c2ccc(F)cc2)oc2cc(NS(C)(=O)=O)c(OC)cc12 [Example 122, 2-(4-Fluoro-phenyl)-6-methanesulfonylamino-5-methoxy-benzofuran-3-carboxylic acid methylamide]
HCV NS5B; HCV NS5B RdRp, BB7 genotype 1b
  IC50: ≤ 500 nM
[1]; [9]
  EC50: < 1000 nM

## CNC(=O)c1c(-c2ccc(C)cc2)oc2ccc(Cl)cc12 [Example 75, 5-Chloro-2-p-tolyl-benzofuran-3-carboxylic acid methylamide]
HCV NS5B; [6]
  IC50: ≤ 500 nM
[1]; [7]
  EC50: < 10000 nM

## CNC(=O)c1c(-c2ccc(F)cc2)oc2cc(N(C)S(C)(=O)=O)c(OCc3ccc(C(=O)OC)cc3)cc12 [Example 305, 4-[2-(4-Fluoro-phenyl)-6-(methanesulfonyl-methyl-amino)-3-methylcarbamoyl-benzofuran-5-yloxymethyl]-benzoic acid methyl ester]
HCV NS5B; [8]
  IC50: ≤ 500 nM
[1]; [3]
  EC50: < 1000 nM
